Experimental data as given in patent publication US9029366B2, “Substituted bicyclic alkoxy pyrazole analogs as allosteric modulators of mGluR5 receptors” (Vanderbilt University, priority 2012, dated 2015).

Experiments:
human mGluR5 = human mGluR5 (Homo sapiens, UniProt P41594); test: Cell-based functional Ca2+ mobilization assay (FDSS), potentiation of glutamate EC20 response, HEK293A cells transfected with human mGluR5a (H10H or H12H cell line); conditions: H10H cell line expressing recombinant human mGluR5, in presence of glutamate EC20, ** = compound is an antagonist; for EC50: read-out: pEC50 (converted); for Emax: HEK293-A, % of maximal glutamate response
Description: Human embryonic kidney (HEK) cells transfected with rat mGluR5 were plated in clear bottom assay plates for assay in a Functional Drug Screening System (FDSS). In the alternative assay, HEK cells transfected with human mGluR5 were plated for assay in the FDSS. In some cases the HEK cells transfected with human mGluR5 are the H10H cell line. Alternatively, the HEK cells transfected with human mGluR5 are the H12H cell line. […] The cells were loaded with a Ca^2+-sensitive fluorescent dye (e.g., Fluo-4), and the plates were washed and placed in the FDSS instrument. After establishment of a fluorescence baseline for about three seconds, the compounds of the present invention were added to the cells, and the response in cells was measured. Five minutes later, an mGluR5 agonist (e.g., glutamate, 3,5-dihydroxyphenylglycine, or quisqualate) was added to the cells, and the response of the cells was measured.
The above described assay can be operated in two modes. In the first mode, a range of concentrations of the present compounds were added to cells, followed by a single fixed concentration of agonist. If a compound acted as a potentiator, an EC50 value for potentiation and a maximum extent of potentiation by the compound at this concentration of agonist was determined by non-linear curve fitting. In the second mode, several fixed concentrations of the present compounds were added to various wells on a plate, followed by a range of concentrations of agonist for each concentration of present compound; the EC50 values for the agonist at each concentration of compound were determined by non-linear curve fitting. A decrease in the EC50 value of the agonist with increasing concentrations of the present compounds (a leftward shift of the agonist concentration-response curve) is an indication of the degree of mGluR5 potentiation at a given concentration of the present compound. An increase in the EC50 value of the agonist with increasing concentrations of the present compounds (a rightward shift of the agonist concentration-response curve) is an indication of the degree of mGluR5 antagonism at a given concentration of the present compound. The second mode also indicates whether the present compounds also affect the maximum response to mGluR5 to agonists.
Human mGluR5a cDNA in pCMV6-XL6 mammalian expression plasmid was purchased from OriGene Technologies, Inc. (catalogue number SC326357) and subcloned into pcDNA3.1(−). Human embryonic kidney (HEK)293A cells were then transfected with human mGluR5a pcDNA3.1(−) using LipofectAmine2000 (Invitrogen) and monoclones were selected and tested for functional response using a Ca^2+ mobilization assay. Monoclones were named for the species (“H” for human) plus the location on the plate (e.g. “10H”).
HEK cells transfected with the human mGluR5a receptor (H10H or H12H cell line) were plated at 15,000 cells/well in clear-bottomed poly-D-lysine-coated assay plates (BD Falcon) in glutamate-glutamine-free growth medium and incubated overnight at 37° C. and 5% CO2. Cell-lines used were either the H10H or H12H cell-lines expressing the human mGluR5 receptor. The following day, the growth medium was removed and the cells were washed with assay buffer containing 1× Hank's balanced salt solution (Invitrogen, Carlsbad, Calif.), 20 mM HEPES, 2.5 mM probenecid, pH 7.4 and left with 20 μL of this reagent. Following this step, the cells were loaded with calcium indicator dye, fluo-4 AM, to a final concentration of 2 μM and incubated for 40-45 min at 37° C. The dye solution was removed and replaced with assay buffer. Cell plates were held for 10-15 min at room temperature and were then loaded into the Functional Drug Screening System 6000 (FDSS 6000, Hamamatsu, Japan).
After establishment of a fluorescence baseline for about 3 seconds, the compounds of the present invention were added to the cells, and the response in cells was measured.

[1] = tested on: amphetamine-induced hyperlocomotion in male Sprague-Dawley rats; test: Reversal of amphetamine-induced hyperlocomotion (rat hyperlocomotion assay); format: in vivo; conditions: vehicle 20% HP-β-CD
Description: A suitable assay for determination of the in vivo effects of the disclosed compounds is the induced hyperlocomotion animal model. Briefly, locomotor activity can be assessed as mean distance traveled (cm) in standard 16×16 photocell testing chambers measuring 43.2 cm (Length)×43.2 cm (Width)×30.5 cm (Height) (Med Associates, St. Albans, Vt.). Animals are habituated to individual activity chambers for at least 30 min prior to drug administration. Following administration of drug or vehicle, activity is recorded for a 90 minute time period. Data are expressed as the mean (±SEM) distance traveled recorded in 5 min intervals over the test period. The data are analyzed using repeated measures analysis of variance (ANOVA) followed by post-hoc testing using Dunnett's test, when appropriate. A difference is considered significant when p≦0.05.
The study was carried out using male Sprague-Dawley rats weighing 225 g-275 g, between 2-3 months old (Harlan, Inc., Indianapolis, Ind.). They were kept in the animal care facility certified by the American Association for the Accreditation of Laboratory Animal Care (AALAC) under a 12-hour light/dark cycle (lights on: 6 a.m.; lights off: 6 p.m.) and had free access to food and water. The experimental protocols performed during the light cycle were approved by the Institutional Animals Care and Use Committee of Vanderbilt University and conformed to the guidelines established by the National Research Council Guide for the Care and Use of Laboratory Animals
Locomotor activity was assessed as mean distance traveled (cm) in Smart Open Field locomotor activity test chambers (Hamilton-Kinder, San Diego, Calif.) with 16×16 photobeams with chambers measuring 43.2 cm (Length)×43.2 cm (Width)×30.5 cm (Height) (Med Associates, St. Albans, Vt.). The animals were habituated for 30 min and then dosed with vehicle or test compound. The rats were then placed into cages. At 60 min, all rats were injected subcutaneously with 1 mg/kg amphetamine or vehicle and then monitored for an additional 60 min. Animals are monitored for a total of 120 minutes.
Data are expressed as the mean (±SEM) distance traveled recorded in 5 min intervals over the test period. The data was analyzed using repeated measures analysis of variance (ANOVA) followed by post-hoc testing using Dunnett's test, when appropriate. A difference was considered significant when p≦0.05. The data for the dose-response studies were analyzed by a between-group analysis of variance. If there was a main effect of dose, then each dose group was compared with the vehicle amphetamine group. The calculations were performed using JMP IN 8 (SAS Institute, Cary, N.C.) statistical software and graphed using SigmaPlot9 (Saugua, Mass.).
Amphetamine sulfate was obtained from Sigma (Cat #A5880-1G; St. Louis, Mo.) and 10 mg was dissolved in 10 ml of water. Test compound, 2-(benzyloxy)-5-[(4-fluorophenyl)carbonyl]-4,5,6,7-tetrahydropyrazolo[1,5-a]pyrazine, was formulated in a volume of 10 ml with an amount of drug appropriate to the dosage indicated. The appropriate amount of compound was mixed into a 20% 2-hydroxypropyl-β-cyclodextrin (2-HP-β-CD) solution. The solution was formulated so that animals were injected with a volume equal to […]. The mixture was then ultrahomogenized on ice for 2-3 minutes using the Dismembrator (Fisher Scientific Model 150T). Then the pH was checked using 0-14 EMD strips and adjusted to a pH of 6-7 if necessary. […]

Sequence of human mGluR5 (P41594 21-1180 isoform P41594-2 limits assumed): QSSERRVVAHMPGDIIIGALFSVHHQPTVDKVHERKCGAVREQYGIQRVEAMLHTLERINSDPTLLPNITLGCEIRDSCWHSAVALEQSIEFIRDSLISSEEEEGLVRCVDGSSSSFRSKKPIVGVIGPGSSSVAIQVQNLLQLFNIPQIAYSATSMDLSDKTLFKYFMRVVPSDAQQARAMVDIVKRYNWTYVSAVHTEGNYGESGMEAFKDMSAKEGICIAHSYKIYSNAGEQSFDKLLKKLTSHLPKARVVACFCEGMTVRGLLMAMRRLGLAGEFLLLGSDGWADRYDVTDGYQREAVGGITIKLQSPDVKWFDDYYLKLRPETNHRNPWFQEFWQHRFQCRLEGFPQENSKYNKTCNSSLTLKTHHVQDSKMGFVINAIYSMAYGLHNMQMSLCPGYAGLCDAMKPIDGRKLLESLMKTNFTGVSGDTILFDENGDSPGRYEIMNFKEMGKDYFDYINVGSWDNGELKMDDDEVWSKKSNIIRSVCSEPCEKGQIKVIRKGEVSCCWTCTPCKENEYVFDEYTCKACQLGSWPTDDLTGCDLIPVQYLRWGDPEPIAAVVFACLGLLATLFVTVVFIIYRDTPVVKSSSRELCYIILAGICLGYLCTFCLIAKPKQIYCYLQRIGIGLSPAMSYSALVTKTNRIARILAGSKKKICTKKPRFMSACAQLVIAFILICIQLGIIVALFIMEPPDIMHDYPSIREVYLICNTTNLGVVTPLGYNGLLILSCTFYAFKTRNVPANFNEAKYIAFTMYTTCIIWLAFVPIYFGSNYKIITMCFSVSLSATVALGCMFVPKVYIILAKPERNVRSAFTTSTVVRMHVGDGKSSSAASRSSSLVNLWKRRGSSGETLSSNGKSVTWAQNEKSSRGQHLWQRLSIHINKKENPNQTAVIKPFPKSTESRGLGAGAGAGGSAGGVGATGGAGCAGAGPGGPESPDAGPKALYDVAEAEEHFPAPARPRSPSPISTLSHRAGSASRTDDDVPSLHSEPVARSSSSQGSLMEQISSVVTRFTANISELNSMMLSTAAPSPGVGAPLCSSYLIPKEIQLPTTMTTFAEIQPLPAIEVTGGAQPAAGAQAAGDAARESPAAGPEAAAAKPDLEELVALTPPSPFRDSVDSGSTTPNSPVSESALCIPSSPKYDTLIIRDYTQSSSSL

Row | SMILES | melting point | EC50 (human mGluR5) | Emax (human mGluR5) | % Reversal of amphetamine-induced hyperlocomotion ([1]; 3 mg/kg test compound p.o. + 1 mg/kg Amph s.c.) | % Reversal of amphetamine-induced hyperlocomotion ([1]; 10 mg/kg test compound p.o. + 1 mg/kg Amph s.c.) | % Reversal of amphetamine-induced hyperlocomotion ([1]; 30 mg/kg test compound p.o. + 1 mg/kg Amph s.c.) | % Reversal of amphetamine-induced hyperlocomotion ([1]; 56.6 mg/kg test compound p.o. + 1 mg/kg Amph s.c.) | % Reversal of amphetamine-induced hyperlocomotion ([1]; 100 mg/kg test compound p.o. + 1 mg/kg Amph s.c.)
1 | O=C(c1ccc(F)cc1F)N1CCn2nc(OCc3ccccc3)cc2C1 [Example B102] | 182.1 °C | 148 nM | 76% |  |  |  |  | 
2 | O=C(c1cc(F)cc(F)c1)N1CCn2nc(OCc3ccccc3)cc2C1 [Example B104] | 165.2 °C | 138 nM | 44.5% |  |  |  |  | 
3 | N#Cc1cccc(COc2cc3n(n2)CCN(C(=O)c2cccc(F)c2)C3)c1 [Example B106] | 103.3 °C | 166 nM | 37% |  |  |  |  | 
4 | O=C(c1ccc(F)c(C(F)(F)F)c1)N1CCn2nc(OCc3ccccc3)cc2C1 [Example B109] | 135.3 °C |  | 58% |  |  |  |  | 
5 | N#Cc1ccc(COc2cc3n(n2)CCN(C(=O)c2ccccc2)C3)cc1 [Example B110] | 155.6 °C | > 30200 nM | 30% |  |  |  |  | 
6 | O=C(c1cccc(Cl)c1)N1CCn2nc(OCc3ccc(F)cc3)cc2C1 [Example B111] | 125.2 °C | 380 nM | 49% |  |  |  |  | 
7 | O=C(c1cc(F)ccc1F)N1CCn2nc(OCc3ccccc3)cc2C1 [Example B114] | 123.7 °C | 417 nM | 72% |  |  |  |  | 
8 | O=C(c1cccc(F)c1F)N1CCn2nc(OCc3ccccc3)cc2C1 [Example B115] | 122.7 °C | 537 nM | 40% |  |  |  |  | 

More lines, main results first:

Row | melting point | EC50 (human mGluR5) | Emax (human mGluR5) | SMILES | % Reversal of amphetamine-induced hyperlocomotion ([1]; 3 mg/kg test compound p.o. + 1 mg/kg Amph s.c.) | % Reversal of amphetamine-induced hyperlocomotion ([1]; 10 mg/kg test compound p.o. + 1 mg/kg Amph s.c.) | % Reversal of amphetamine-induced hyperlocomotion ([1]; 30 mg/kg test compound p.o. + 1 mg/kg Amph s.c.) | % Reversal of amphetamine-induced hyperlocomotion ([1]; 56.6 mg/kg test compound p.o. + 1 mg/kg Amph s.c.) | % Reversal of amphetamine-induced hyperlocomotion ([1]; 100 mg/kg test compound p.o. + 1 mg/kg Amph s.c.)
9 | 124 °C | > 30200 nM | 15% | N#Cc1cccc(COc2cc3n(n2)CCN(C(=O)c2cc(F)cc(F)c2)C3)c1 [Example B119] |  |  |  |  | 
10 | 115.4 °C | 97.7 nM | 68% | O=C(c1ccc(F)cc1F)N1CCn2nc(OCc3cccc(F)c3)cc2C1 [Example B129] |  |  |  |  | 
11 | 116.8 °C | > 30200 nM | 16% | N#Cc1cccc(COc2cc3n(n2)CCN(C(=O)c2ccccc2Cl)C3)c1 [Example B131] |  |  |  |  | 
12 | 118.1 °C | 224 nM | 42% | O=C(c1cc(F)cc(F)c1)N1CCn2nc(OCc3ccccc3F)cc2C1 [Example B132] |  |  |  |  | 
13 | 132.8 °C | 166 nM | 76% | O=C(c1ccc(F)cc1F)N1CCn2nc(OCc3ccccc3F)cc2C1 [Example B133] |  |  |  |  | 
14 | 132.4 °C | 141 nM | 71% | O=C(c1ccccc1F)N1CCn2nc(OCc3ccccc3F)cc2C1 [Example B134] |  |  |  |  | 
15 | 187.7 °C |  |  | O=C(c1ccc(F)cc1)N1CCn2nc(OCc3ccccc3)cc2C1 [test compound, 2-(benzyloxy)-5-[(4-fluorophenyl)carbonyl]-4,5,6,7-tetrahydropyrazolo[1,5-a]pyrazine] | 14% | 32% | 44% | 42% | 41%
